Series [1] in a line: LNP size and PDI by dynamic laser light scattering. The format is physicochemical. The settings on record: LNP: 50% cationic lipid, 38.5% cholesterol, 10% DSPC, 1.5% DMG-PEG2000; Ffluc mRNA. As to the method:
(§1) 1. The cationic lipid (50 mg/mL) prepared in the above examples of the present disclosure, cholesterol (20 mg/mL), DSPC (20 mg/mL) and DMG-PEG2000 (20 mg/mL) were dissolved in ethanol, and the solution was placed in a 55° C. metal thermostatic bath as needed to aid dissolution, to obtain a lipid mixture with the following molar composition: 1.5% DMG-PEG2000, 50% cationic lipid, 38.5% cholesterol, and 10% DSPC.
(§2) 2. The mRNA encoding Ffluc was diluted with 10 mM pH 4.0 citrate buffer to prepare a 0.2 mg/mL mRNA solution.
(§3) 3. The lipid mixture prepared in step 1 was mixed with the mRNA solution prepared in step 2 using a syringe pump with a tee at a total flow rate of 40 mL/min.
(§4) 4. The LNP mixture was collected after the three-way mixing and placed in a dialysis bag with a molecular weight cut-off of 100 KDa.
(§5) 5. The LNP mixture was dialyzed overnight against 50 mM Tris-buffered saline, pH 7.4.
(§6) 6. Sieving, and subsequent measurement of the sieved LNP to measure the PDI of the LNP by dynamic laser light scattering; to measure the mRNA encapsulation efficiency and concentration by Ribogreen assay; and to measure the pKa by TNS-α assay.

Series [2] is described as follows: mRNA encapsulation efficiency of LNP by Ribogreen assay. The format is physicochemical. The conditions noted are these: LNP: 50% cationic lipid, 38.5% cholesterol, 10% DSPC, 1.5% DMG-PEG2000; Ffluc mRNA. As to the method: as §1, §2, §3, §4, §5, §6
Another series has as its system mice. The experiment in a line: In vivo delivery of Ffluc mRNA LNP in mice, intravenous administration, luminescence relative to MC3. Details: species or system mice (female Balb/C). The conditions noted are these: fold change in luminescence intensity relative to MC3; 0.06 mg/kg tail vein; 6 h after injection. The procedure: The prepared encapsulation solution was applied to mice in the following manner, and its delivery efficiency in mice was tested. Among them, DLin-MC3-DMA (MC3) was a cationic liposome for delivering small nucleic acids that was approved by the FDA for marketing in 2018, which has high nucleic acid drug delivery efficiency and biosafety, and was usually used as the industry gold standard in the screening process of cationic lipids. In the evaluation of mice experiments, the ratio of nucleic acid delivery efficiency normalized to MC3 was greater than 0.1, which was considered to be a cationic lipid with high delivery efficiency.
1. The LNP solution was diluted with 50 mM TBS, pH 7.4 to a concentration of 0.1 mg/mL mRNA.
2. The mice involved in this study were female Balb/C, weighing 18-22 g, 6-8 weeks old, with 5 mice in each group.
3. The dosing solution was kept at 4° C. prior to injection.
4. Each mice received 0.06 mg/kg via tail vein injection.
5. The mice were injected intraperitoneally with 200 μL of 1.5 mg/mL D-luciferin solution 6 h after injection.
6. The in vivo luminescence images of the mice were obtained using the IVIS system (Aniview).
7. The luminescence intensity of each mice was measured using Aniview software.
8. MC3 lipid nanoparticles were used as a positive control. The in vivo efficacy of each cationic lipid tested was recorded as the fold change in luminescence intensity relative to MC3 (ratio normalized to MC3).

Consider `CCCCC/C=C\C/C=C\CCCCCCCC(=O)OCC(COC(=O)/C=C(/CCCC)CCCCCC)COC(=O)OCCCN1CCCCC1` (stereo not shown) [CPL-416, 3-(((Z)-3-butylnon-2-enoyl)oxy)-2-((((3-(piperidin-1-yl)propoxy)carbonyl)oxy)methyl)propyl(9Z,12Z)-octadeca-9,12-dienoate], for which, in series [1], the PDI is 0.009 and the “Size (nm)” value was 91.52 nm. Further, the “Encapsulation Rate” value in series [2] was 96%. Also, the “In Vivo Efficacy Normalized To Mc3 In Mice (Intravenous Injection)” value with mice is given as 0.43.
As for `CCCCC/C=C\C/C=C\CCCCCCCC(=O)OCC(COC(=O)/C=C(\CCCCCC)CCCCCCCC)COC(=O)OCCC1CCN(C)CC1` (stereo not shown) [CPL-292, 3-(((E)-3-hexylundec-2-enoyl)oxy)-2-((((2-(1-methylpiperidin-4-yl)ethoxy)carbonyl)oxy)methyl)propyl(9Z,12Z)-octadeca-9,12-dienoate], in series [1], the PDI is 0.1816 and the “Size (nm)” value was 90.31 nm. In addition, the “Encapsulation Rate” value in series [2] is listed as 97%. Also, in the series on mice, the “In Vivo Efficacy Normalized To Mc3 In Mice (Intravenous Injection)” value stood at 0.27.
For `CCCCC/C=C\C/C=C\CCCCCCCC(=O)OCC(COC(=O)/C=C(\CCCCC)CCCCCCCC)COC(=O)OCCCN1CCCCC1` (stereo not shown) [CPL-421, 3-(((E)-3-pentylundec-2-enoyl)oxy)-2-((((3-(piperidin-1-yl)propoxy)carbonyl)oxy)methyl)propyl(9Z,12Z)-octadeca-9,12-dienoate], in series [1], the PDI worked out at 0.1904 and the “Size (nm)” value stood at 82.69 nm. Further, in series [2], the “Encapsulation Rate” value is reported as 94%. The “In Vivo Efficacy Normalized To Mc3 In Mice (Intravenous Injection)” value with mice is listed as 0.37.
The corresponding values for `CCCCC/C=C\C/C=C\CCCCCCCC(=O)OCC(COC(=O)/C=C(\CCCCCCC)CCCCCCCC)COC(=O)OCCCN(CC)CC` (stereo not shown) [CPL-274, 3-(((3-(diethylamino)propoxy)carbonyl)oxy)-2-((((E)-3-heptylundec-2-enoyl)oxy)methyl)propyl(9Z,12Z)-octadeca-9,12-dienoate] are 0.1812, 78.29 nm, 97% and 0.37.
`CCCCC/C=C\C/C=C\CCCCCCCC(=O)OCC(COC(=O)/C=C(\CCCCCC)CCCCCCCCCC)COC(=O)OCC1CCCN(C)C1` (stereo not shown) [CPL-381, 3-(((E)-3-hexyltridec-2-enoyl)oxy)-2-(((((1-methylpiperidin-3-yl)methoxy)carbonyl)oxy)methyl)propyl(9Z,12Z)-octadeca-9,12-dienoate]: in series [1], the PDI is reported as 0.1174 and the “Size (nm)” value turned out to be 83.86 nm. Moreover, the “Encapsulation Rate” value in series [2] turned out to be 91%. Besides, the “In Vivo Efficacy Normalized To Mc3 In Mice (Intravenous Injection)” value in the series on mice was found to be 0.81.
Turning to `CCCCC/C=C\C/C=C\CCCCCCCC(=O)OCC(COC(=O)/C=C(\CCCCCC)CCCCCCC)COC(=O)OCC1CCN(CC)CC1` (stereo not shown) [CPL-449, 3-((((1-ethylpiperidin-4-yl)methoxy)carbonyl)oxy)-2-((((E)-3-hexyldec-2-enoyl)oxy)methyl)propyl(9Z,12Z)-octadeca-9,12-dienoate], in series [1], the PDI amounted to 0.0875 and the “Size (nm)” value was determined as 73.57 nm. For the same compound, the “Encapsulation Rate” value in series [2] is on record as 97%. For the same compound, the “In Vivo Efficacy Normalized To Mc3 In Mice (Intravenous Injection)” value in the series on mice amounted to 0.49.
Consider `CCCCC/C=C\C/C=C\CCCCCCCC(=O)OCC(COC(=O)/C=C(\CCCCC)CCCCCC)COC(=O)OCCCN(CC)CC` (stereo not shown) [CPL-266, 3-(((3-(diethylamino)propoxy)carbonyl)oxy)-2-((((E)-3-pentylnon-2-enoyl)oxy)methyl)propyl(9Z,12Z)-octadeca-9,12-dienoate], for which, in series [1], the PDI is listed as 0.0481 and the “Size (nm)” value is reported as 68.11 nm. The “Encapsulation Rate” value in series [2] is given as 97%. Further, the “In Vivo Efficacy Normalized To Mc3 In Mice (Intravenous Injection)” value with mice is reported as 0.72.
The corresponding values for `CCCCC/C=C\C/C=C\CCCCCCCC(=O)OCC(COC(=O)/C=C(\CCCCCCC)CCCCCCCC)COC(=O)OCCCN1CCCCC1` (stereo not shown) [CPL-428, 3-(((E)-3-heptylundec-2-enoyl)oxy)-2-((((3-(piperidin-1-yl)propoxy)carbonyl)oxy)methyl)propyl(9Z,12Z)-octadeca-9,12-dienoate] are 0.1411, 73.57 nm, 96% and 0.34.
The corresponding values for `CCCCCCCC/C(=C/C(=O)OCCCCCN(CCCO)CCCCCOC(=O)/C=C(\CCC)CCCCCCCC)CCC` [CPL-039, ((3-hydroxypropyl)azanediyl)bis(pentane-5,1-diyl)(2E,2′E)-bis(3-propylundec-2-enoate)] are 0.2202, 97.61 nm, 94% and 1.44.
Turning to `CCCCC/C=C\C/C=C\CCCCCCCC(=O)OCC(COC(=O)/C=C(\CCCCCC)CCCCCCC)COC(=O)OCC1CCCN(C)C1` (stereo not shown) [CPL-383], in series [1], the PDI came out at 0.1733 and the “Size (nm)” value came out at 99.82 nm. Besides, the “Encapsulation Rate” value in series [2] is reported as 97%. Besides, in the series with mice, the “In Vivo Efficacy Normalized To Mc3 In Mice (Intravenous Injection)” value is on record as 0.80.
In the same order, the values of `CCCCC/C=C\C/C=C\CCCCCCCC(=O)OCC(COC(=O)/C=C(\CCCCC)CCCCCCCC)COC(=O)OCC1CCCN(C)C1` (stereo not shown) [CPL-377, 3-((((1-methylpiperidin-3-yl)methoxy)carbonyl)oxy)-2-((((E)-3-pentylundec-2-enoyl)oxy)methyl)propyl(9Z,12Z)-octadeca-9,12-dienoate] are 0.1248, 88.31 nm, 94% and 0.45.
The corresponding values for `CCCCC/C=C\C/C=C\CCCCCCCC(=O)OCC(COC(=O)/C=C(\CCCCCCC)CCCCCCCCCC)COC(=O)OCCCN1CCN(C)CC1` (stereo not shown) [CPL-407, 3-(((E)-3-heptyltridec-2-enoyl)oxy)-2-((((3-(4-methylpiperazin-1-yl)propoxy)carbonyl)oxy)methyl)propyl(9Z,12Z)-octadeca-9,12-dienoate] are 0.0562, 98.86 nm, 97% and 0.21.
In the same order, the values of `CCCCC/C=C\C/C=C\CCCCCCCC(=O)OCC(COC(=O)/C=C(\CCCCC)CCCCCCCC)COC(=O)OCCCN(C)C` (stereo not shown) [CPL-223, 3-(((3-(dimethylamino)propoxy)carbonyl)oxy)-2-((((E)-3-pentylundec-2-enoyl)oxy)methyl)propyl(9Z,12Z)-octadeca-9,12-dienoate] are 0.102, 99.55 nm, 98% and 0.41.
For `CCCCC/C=C\C/C=C\CCCCCCCC(=O)OCC(COC(=O)/C=C(\CCCCC)CCCCCCCCCC)COC(=O)OCCCN(C)C` (stereo not shown) [CPL-224, 3-(((3-(dimethylamino)propoxy)carbonyl)oxy)-2-((((E)-3-pentyltridec-2-enoyl)oxy)methyl)propyl(9Z,12Z)-octadeca-9,12-dienoate], in series [1], the PDI is 0.1162 and the “Size (nm)” value was 90.88 nm. In addition, the “Encapsulation Rate” value in series [2] is recorded as 94%. In the series with mice, the “In Vivo Efficacy Normalized To Mc3 In Mice (Intravenous Injection)” value was determined as 0.87.
The corresponding values for `CCCCC/C=C\C/C=C\CCCCCCCC(=O)OCC(COC(=O)/C=C(\CCCCC)CCCCCC)COC(=O)OCCCN(C)C` (stereo not shown) [CPL-222, 3-(((3-(dimethylamino)propoxy)carbonyl)oxy)-2-((((E)-3-pentylnon-2-enoyl)oxy)methyl)propyl(9Z,12Z)-octadeca-9,12-dienoate] are 0.0629, 72.01 nm, 96% and 0.37.
As for `CCCCCCCCCC/C(=C/C(=O)OCCCCCN(CCCO)CCCCCOC(=O)/C=C(\CCCC)CCCCCCCCCC)CCCC` [CPL-044, ((3-hydroxypropyl)azanediyl)bis(pentane-5,1-diyl)(2E,2′E)-bis(3-butyltridec-2-enoate)], in series [1], the PDI worked out at 0.15 and the “Size (nm)” value came out at 78.4 nm. The “Encapsulation Rate” value in series [2] is reported as 98%. The “In Vivo Efficacy Normalized To Mc3 In Mice (Intravenous Injection)” value with mice is recorded as 1.26.

The values are drawn from patent US20250214925A1, “CATIONIC LIPID, LIPOSOME, LIPID NANOPARTICLE, AND USE” (CARCELL BIOPHARMA LTD., priority 2022, published 2025).
